According to patent US20060069132A1, “Azolecarboxamide herbicides” (priority 2004, published 2006):

Key:
Italian ryegrass = assay: Test C postemergence herbicide test; type: in vivo, Lolium multiflorum
Protocol: (§1) At the same time, plants selected from these crop and weed species and also winter barley (Hordeum vulgare L.), blackgrass (Alopecurus myosuroides Huds.), canarygrass (Phalaris minor Retz.), chickweed (Stellaria media (L.) Vill.), downy bromegrass (Bromus tectorum L.), green foxtail (Setaria viridis (L.) Beauv.), Italian ryegrass (Lolium multiflorum Lam.), wheat (Triticum aestivum L.), wild oat (Avenafatua L.) and windgrass (Apera spica-venti (L.) Beauv.) were treated with postemergence applications of some of the test chemicals formulated in the same manner. Plants ranged in height from 2 to 18 cm (1- to 4-leaf stage) for postemergence treatments. Plant species in the flooded paddy test consisted of rice (Oryza sativa), smallflower umbrella sedge (Cyperus difformis L.), ducksalad (Heteranthera limosa (Sw.) Willd.) and barnyardgrass (Echinochloa crus-galli (L.) Beauv.) grown to the 2-leaf stage for testing. Treated plants and controls were maintained in a greenhouse for 12 to 14 days, after which time all species were compared to controls and visually evaluated. Plant response ratings, summarized in Table C, are based on a scale of 0 to 100 where 0 is no effect and 100 is complete control. A dash (-) response means no test result.

wheat [1] = assay: Test C postemergence herbicide test; type: in vivo, Triticum aestivum
Protocol: as §1

velvetleaf = assay: Test B pre-/postemergence herbicide test; type: in vivo, Abutilon theophrasti
Outline: (§2)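 Visual rating, 0 (no effect) to 100 (complete control), versus untreated controls after 13–15 d in greenhouse. Pre- and postemergence applications (postemergence plants 2–18 cm, 1–4 leaves); flooded paddy arm at 2-leaf stage. Compounds in non-phytotoxic solvent plus surfactant.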

barnyardgrass [2] = assay: Test B pre-/postemergence herbicide test; type: in vivo, Echinochloa crus-galli; details: for Barnyardgrass plant response rating: Postemergence, scale 0 (no effect) to 100 (complete control)
Outline: (§3)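 Plants compared with untreated controls 13–15 days post-treatment and given a visual 0–100 injury score. Applications: preemergence to seeds; postemergence at 1- to 4-leaf (2–18 cm); paddy species flooded, 2-leaf stage. Vehicle non-phytotoxic, surfactant included.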

wheat [3] = assay: Test B postemergence herbicide test; type: in vivo, Triticum aestivum; set-up: key to Wheat plant response rating: 0 = no effect, 100 = complete control
Outline: (§4)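 Plants grow to 1- to 4-leaf stage (2–18 cm) for postemergence spraying, or to 2-leaf stage for the paddy test. Formulated compound is applied. Greenhouse holding lasts 13–15 days. Response is scored visually relative to controls, 0 no effect to 100 complete control; a dash means no result.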

winter barley = assay: Test C postemergence herbicide test; type: in vivo, Hordeum vulgare
Protocol: as §1

corn = assay: Test B pre-/postemergence herbicide test; type: in vivo, Zea mays
Outline: as §2

blackgrass [4] = assay: Test C postemergence herbicide test; type: in vivo, Alopecurus myosuroides
Protocol: as §1

blackgrass [5] = assay: Test B postemergence herbicide test; type: in vivo, Alopecurus myosuroides
Outline: (§5)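 Formulated test chemicals went onto postemergence plants measuring 2 to 18 cm, at one to four leaves. For the paddy assay, species had reached two leaves. Scoring took place 13–15 days later by eye, relative to untreated plants, using 0 for no effect up to 100 for full control.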

giant foxtail = assay: Test B pre-/postemergence herbicide test; type: in vivo, Setaria faberi
Outline: as §2

canarygrass = assay: Test C postemergence herbicide test; type: in vivo, Phalaris minor
Protocol: as §1

green foxtail = assay: Test C postemergence herbicide test; type: in vivo, Setaria viridis
Protocol: as §1

downy bromegrass = assay: Test C postemergence herbicide test; type: in vivo, Bromus tectorum
Protocol: as §1

ducksalad = assay: Test B flooded paddy test; type: in vivo, Heteranthera limosa; details: 1000 g ai/ha, scale 0 to 100 (0 no effect, 100 complete control)
Outline: as §5

barnyardgrass [6] = assay: Test B flooded paddy test; type: in vivo, Echinochloa crus-galli; details: 1000 g ai/ha, scale 0 to 100 (0 no effect, 100 complete control)
Outline: as §5

rice = assay: Test B flooded paddy test; type: in vivo, Oryza sativa; details: 1000 g ai/ha, scale 0 to 100 (0 no effect, 100 complete control)
Outline: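 Read-out: visual comparison with controls, scored 0 to 100, where 100 means complete control and 0 no effect. Formulated chemicals were applied postemergence to plants 2–18 cm tall (1- to 4-leaf), or to flooded-paddy plants at the 2-leaf stage, then held 13 to 15 days under glass.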

large crabgrass = assay: Test B pre-/postemergence herbicide test; type: in vivo, Digitaria sanguinalis
Outline: as §2

Surinam grass = assay: Test B pre-/postemergence herbicide test; type: in vivo, Urochloa decumbens
Outline: as §2

windgrass = assay: Test C postemergence herbicide test; type: in vivo, Apera spica-venti
Protocol: as §1

wild oat [7] = assay: Test C postemergence herbicide test; type: in vivo, Avenafatua
Protocol: as §1

morningglory = assay: Test B pre-/postemergence herbicide test; type: in vivo, Ipomoea coccinea
Outline: as §3

cocklebur = assay: Test B pre-/postemergence herbicide test; type: in vivo, Xanthium strumarium
Outline: as §3

[8] = system: small flower umbrella sedge; assay: Test B flooded paddy test; type: in vivo, Cyperus difformis; details: 1000 g ai/ha, scale 0 to 100 (0 no effect, 100 complete control)
Outline: as §5

pigweed = assay: Test B pre-/postemergence herbicide test; type: in vivo, Amaranthus retroflexus
Outline: as §2

lambsquarters = assay: Test B pre-/postemergence herbicide test; type: in vivo, Chenopodium album
Outline: as §2

wild oat [9] = assay: Test B postemergence herbicide test; type: in vivo, Avena fatua
Outline: as §4

[10] = Postemergence, 500 g ai/ha, scale 0 to 100, 0 no effect, 100 complete control
[11] = postemergence, 125 g ai/ha, scale 0 to 100
[12] = postemergence, 62 g ai/ha, scale 0 to 100
[13] = 125 g ai/ha, 0 is no effect, 100 is complete control, preemergence
[14] = Postemergence, 500 g ai/ha, scale 0 (no effect) to 100 (complete control)
[15] = Postemergence, 500 g ai/ha, scale 0 to 100
[16] = Postemergence, 250 g ai/ha, scale 0 to 100, 0 no effect, 100 complete control

C=CCN(CC=C)C(=O)c1cccc(NC(=O)c2nn(C(C)(C)C)nc2CC)c1 [Compound 415]
Plant response rating, Ryegrass, Italian (Italian ryegrass; [10]): 45 | Plant response rating, Ryegrass, Italian (Italian ryegrass; [11]): 40 | Plant response rating, Ryegrass, Italian (Italian ryegrass; [12]): 30 | Plant response rating, Wheat (wheat [1]; [10]): 30 | Plant response rating, Wheat (wheat [1]; [11]): 25 | Plant response rating, Wheat (wheat [1]; [12]): 20 | Plant response rating (0 to 100 scale), Velvetleaf (velvetleaf; [13]): 20 | Velvetleaf plant response rating (velvetleaf; [14]): 50 | Velvetleaf plant response rating (velvetleaf; [11]): 30 | Plant response rating (0 to 100 scale), Barnyardgrass (barnyardgrass [2]; [13]): 10 | Barnyardgrass plant response rating (barnyardgrass [2]; 125 g ai/ha): 20 | Barnyardgrass plant response rating (barnyardgrass [2]; 500 g ai/ha): 20 | Wheat plant response rating (wheat [3]; 500 g ai/ha, scale 0 to 100, 0 no effect, 100 complete control, preemergence): 30 | Wheat plant response rating (wheat [3]; [14]): 30 | Wheat plant response rating (wheat [3]; [11]): 20 | Barley, Winter plant response rating (winter barley; [15]): 45 | Plant response rating, Barley, Winter (winter barley; Postemergence, 125 g ai/ha, scale 0 to 100, 0 no effect, 100 complete control): 35 | Plant response rating, Barley, Winter (winter barley; [16]): 35 | Plant response rating, Barley, Winter (winter barley; postemergence, 62 g ai/ha, scale 0 to 100 (0 no effect, 100 complete control)): 35 | Plant response rating (0 to 100 scale), Corn (corn; [13]): 0 | Corn plant response rating (corn; [14]): 20 | Corn plant response rating (corn; [11]): 20 | Blackgrass plant response rating (blackgrass [4]; [15]): 65 | Plant response rating, Blackgrass (blackgrass [4]; [16]): 60 | Plant response rating, Blackgrass (blackgrass [4]; [11]): 60 | Plant response rating, Blackgrass (blackgrass [4]; [12]): 50 | Blackgrass plant response rating (blackgrass [5]; [14]): 40 | Blackgrass plant response rating (blackgrass [5]; [11]): 30 | Plant response rating (0 to 100 scale), Foxtail, Giant (giant foxtail; [13]): 20 | Foxtail, Giant plant response rating (giant foxtail; [14]): 40 | Foxtail, Giant plant response rating (giant foxtail; [11]): 20 | Plant response rating, Canarygrass (canarygrass; [16]): 55 | Plant response rating, Canarygrass (canarygrass; [10]): 65 | Plant response rating, Canarygrass (canarygrass; [11]): 50 | Plant response rating, Canarygrass (canarygrass; [12]): 45 | Plant response rating, Foxtail, Green (green foxtail; [16]): 50 | Plant response rating, Foxtail, Green (green foxtail; [10]): 60 | Plant response rating, Foxtail, Green (green foxtail; [11]): 50 | Plant response rating, Foxtail, Green (green foxtail; [12]): 45 | Plant response rating, Bromegrass, Downy (downy bromegrass; [16]): 60 | Plant response rating, Bromegrass, Downy (downy bromegrass; [10]): 65 | Plant response rating, Bromegrass, Downy (downy bromegrass; [11]): 60 | Plant response rating, Bromegrass, Downy (downy bromegrass; [12]): 60 | Ducksalad plant response rating (ducksalad): 80 | Barnyardgrass plant response rating (barnyardgrass [6]): 60 | Rice plant response rating (rice): 50 | Plant response rating (0 to 100 scale), Crabgrass, Large (large crabgrass; [13]): 70 | Crabgrass, Large plant response rating (large crabgrass; [14]): 50 | Crabgrass, Large plant response rating (large crabgrass; [11]): 20 | Plant response rating (0 to 100 scale), Surinam Grass (Surinam grass; [13]): 20 | Surinam Grass plant response rating (Surinam grass; [14]): 30 | Surinam Grass plant response rating (Surinam grass; [11]): 10 | Plant response rating, Windgrass (windgrass; [10]): 65 | Plant response rating, Windgrass (windgrass; [11]): 50 | Plant response rating, Windgrass (windgrass; [12]): 50 | Plant response rating, Oat, Wild (wild oat [7]; [10]): 55 | Plant response rating, Oat, Wild (wild oat [7]; [11]): 45 | Plant response rating, Oat, Wild (wild oat [7]; [12]): 40 | Plant response rating (0 to 100 scale), Morningglory (morningglory; [13]): 0 | Morningglory plant response rating (morningglory; [14]): 40 | Morningglory plant response rating (morningglory; [11]): 10 | Plant response rating (0 to 100 scale), Cocklebur (cocklebur; [13]): 0 | Cocklebur plant response rating (cocklebur; [14]): 50 | Cocklebur plant response rating (cocklebur; [11]): 30 | Sedge, Umbrella plant response rating [8]: 80 | Plant response rating (0 to 100 scale), Pigweed (pigweed; [13]): 60 | Pigweed plant response rating (pigweed; [14]): 90 | Pigweed plant response rating (pigweed; [11]): 70 | Plant response rating (0 to 100 scale), Lambsquarters (lambsquarters; [13]): 50 | Lambsquarters plant response rating (lambsquarters; [14]): 80 | Lambsquarters plant response rating (lambsquarters; [11]): 70 | Oat, Wild plant response rating (wild oat [9]; [14]): 40 | Oat, Wild plant response rating (wild oat [9]; [11]): 30
